According to patent US8193208B2 (Purdue Pharma L.P., priority 2005, dated 2012):

How the values were obtained:
Assay type in all cases: cell-based
[1] = target: T1, N-type calcium channel (NTCC) (Homo sapiens, UniProt Q00975); assay: FLIPR calcium mobilization assay for N-type calcium channel (differentiated IMR32 cells); set-up: differentiated IMR32 cells were treated with 1×; endogenous in cells; host or cells: IMR32 cells (ATCC), differentiated 8 days with dibutyryl cAMP and bromodeoxyuridine; details: calcium mobilization in vitro assay; N-type calcium channel block
T1 sequence (Q00975 whole entry): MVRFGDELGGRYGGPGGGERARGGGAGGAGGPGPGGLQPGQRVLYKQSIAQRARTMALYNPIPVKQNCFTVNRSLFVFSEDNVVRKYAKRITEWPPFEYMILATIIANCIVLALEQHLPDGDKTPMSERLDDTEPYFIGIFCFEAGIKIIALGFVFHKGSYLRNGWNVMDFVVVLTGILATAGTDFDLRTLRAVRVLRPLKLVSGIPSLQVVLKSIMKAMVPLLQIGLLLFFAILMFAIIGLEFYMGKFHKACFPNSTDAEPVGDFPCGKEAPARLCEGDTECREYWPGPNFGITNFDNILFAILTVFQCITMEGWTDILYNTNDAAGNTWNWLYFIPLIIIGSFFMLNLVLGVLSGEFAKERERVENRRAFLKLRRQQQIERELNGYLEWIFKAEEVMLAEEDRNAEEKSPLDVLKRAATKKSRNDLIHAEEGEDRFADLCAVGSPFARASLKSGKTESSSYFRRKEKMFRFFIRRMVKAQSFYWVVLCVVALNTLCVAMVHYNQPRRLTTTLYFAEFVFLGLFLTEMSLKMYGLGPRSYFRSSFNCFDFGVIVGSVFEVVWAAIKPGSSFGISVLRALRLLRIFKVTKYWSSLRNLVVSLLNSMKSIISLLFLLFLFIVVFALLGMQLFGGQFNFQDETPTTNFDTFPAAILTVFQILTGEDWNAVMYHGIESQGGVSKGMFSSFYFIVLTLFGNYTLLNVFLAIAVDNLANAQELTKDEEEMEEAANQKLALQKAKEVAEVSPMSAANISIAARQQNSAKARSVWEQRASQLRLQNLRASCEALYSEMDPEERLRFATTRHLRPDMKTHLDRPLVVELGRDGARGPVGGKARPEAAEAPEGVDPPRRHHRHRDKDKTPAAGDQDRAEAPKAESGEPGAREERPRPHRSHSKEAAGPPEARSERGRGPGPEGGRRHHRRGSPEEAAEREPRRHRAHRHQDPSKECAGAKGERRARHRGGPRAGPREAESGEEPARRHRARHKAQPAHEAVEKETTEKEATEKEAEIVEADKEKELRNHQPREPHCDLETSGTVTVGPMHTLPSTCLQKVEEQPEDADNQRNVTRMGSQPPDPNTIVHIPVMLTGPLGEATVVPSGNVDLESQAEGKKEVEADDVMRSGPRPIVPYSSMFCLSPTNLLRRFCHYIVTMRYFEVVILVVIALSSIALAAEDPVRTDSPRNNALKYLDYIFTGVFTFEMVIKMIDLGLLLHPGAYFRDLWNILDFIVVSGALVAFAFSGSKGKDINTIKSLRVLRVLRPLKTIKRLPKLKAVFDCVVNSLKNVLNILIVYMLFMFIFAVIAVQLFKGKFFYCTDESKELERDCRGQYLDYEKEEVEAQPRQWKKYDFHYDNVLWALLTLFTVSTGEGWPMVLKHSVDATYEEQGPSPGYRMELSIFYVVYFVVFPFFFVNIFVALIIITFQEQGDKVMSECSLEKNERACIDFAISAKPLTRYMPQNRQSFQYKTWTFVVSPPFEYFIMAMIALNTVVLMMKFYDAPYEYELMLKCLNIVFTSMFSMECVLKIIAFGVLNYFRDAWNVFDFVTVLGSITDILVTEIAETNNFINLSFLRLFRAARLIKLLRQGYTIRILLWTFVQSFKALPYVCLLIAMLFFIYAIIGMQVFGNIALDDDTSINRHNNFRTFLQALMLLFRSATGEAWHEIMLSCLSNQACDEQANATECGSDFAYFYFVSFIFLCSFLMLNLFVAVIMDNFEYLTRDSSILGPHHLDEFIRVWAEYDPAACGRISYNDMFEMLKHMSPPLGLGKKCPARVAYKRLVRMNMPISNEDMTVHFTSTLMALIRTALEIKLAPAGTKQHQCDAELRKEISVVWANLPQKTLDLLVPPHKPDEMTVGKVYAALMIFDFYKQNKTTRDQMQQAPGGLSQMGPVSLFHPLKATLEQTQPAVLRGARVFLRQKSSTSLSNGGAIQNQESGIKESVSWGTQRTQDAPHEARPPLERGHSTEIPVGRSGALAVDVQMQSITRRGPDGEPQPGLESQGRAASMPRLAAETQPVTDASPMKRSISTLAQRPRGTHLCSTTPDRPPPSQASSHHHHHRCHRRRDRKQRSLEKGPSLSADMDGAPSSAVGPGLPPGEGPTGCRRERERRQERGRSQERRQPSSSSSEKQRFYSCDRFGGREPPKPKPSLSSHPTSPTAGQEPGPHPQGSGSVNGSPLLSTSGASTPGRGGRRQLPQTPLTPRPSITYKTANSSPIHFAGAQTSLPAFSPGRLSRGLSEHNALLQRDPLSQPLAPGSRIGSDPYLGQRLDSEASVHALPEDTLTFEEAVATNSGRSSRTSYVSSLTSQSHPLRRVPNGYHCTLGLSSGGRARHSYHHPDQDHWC
T1 sequence (P54289 25-956 partner limits assumed): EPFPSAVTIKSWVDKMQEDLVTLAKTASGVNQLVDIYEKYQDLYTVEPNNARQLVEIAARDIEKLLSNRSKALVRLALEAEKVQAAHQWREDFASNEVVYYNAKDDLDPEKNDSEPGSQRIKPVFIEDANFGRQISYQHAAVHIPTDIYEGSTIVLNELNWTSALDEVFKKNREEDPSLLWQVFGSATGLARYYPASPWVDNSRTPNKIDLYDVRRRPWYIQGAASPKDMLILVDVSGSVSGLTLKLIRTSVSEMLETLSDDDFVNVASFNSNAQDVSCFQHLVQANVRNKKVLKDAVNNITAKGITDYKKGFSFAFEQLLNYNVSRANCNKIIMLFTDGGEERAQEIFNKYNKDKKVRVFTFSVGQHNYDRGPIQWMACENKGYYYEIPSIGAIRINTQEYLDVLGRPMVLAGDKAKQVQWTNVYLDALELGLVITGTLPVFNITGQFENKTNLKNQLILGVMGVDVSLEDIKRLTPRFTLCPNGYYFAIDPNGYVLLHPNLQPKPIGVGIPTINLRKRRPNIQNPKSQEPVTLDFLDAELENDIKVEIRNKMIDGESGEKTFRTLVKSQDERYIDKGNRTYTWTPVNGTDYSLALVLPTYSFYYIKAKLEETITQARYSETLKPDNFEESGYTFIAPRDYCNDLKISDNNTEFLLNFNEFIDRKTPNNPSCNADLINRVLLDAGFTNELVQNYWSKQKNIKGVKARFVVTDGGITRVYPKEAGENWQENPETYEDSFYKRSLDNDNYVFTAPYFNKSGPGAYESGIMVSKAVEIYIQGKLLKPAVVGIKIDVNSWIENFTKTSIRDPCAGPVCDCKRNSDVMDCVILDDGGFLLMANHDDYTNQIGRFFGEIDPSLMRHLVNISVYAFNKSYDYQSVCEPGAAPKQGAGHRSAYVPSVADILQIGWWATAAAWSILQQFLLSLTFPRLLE
T1 sequence (P54289 957-1103 partner limits assumed): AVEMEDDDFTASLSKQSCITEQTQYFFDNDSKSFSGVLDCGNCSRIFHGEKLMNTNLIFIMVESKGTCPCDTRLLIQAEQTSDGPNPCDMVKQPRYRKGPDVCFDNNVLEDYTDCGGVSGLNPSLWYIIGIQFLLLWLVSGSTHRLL
T1 sequence (Q02641 whole entry partner): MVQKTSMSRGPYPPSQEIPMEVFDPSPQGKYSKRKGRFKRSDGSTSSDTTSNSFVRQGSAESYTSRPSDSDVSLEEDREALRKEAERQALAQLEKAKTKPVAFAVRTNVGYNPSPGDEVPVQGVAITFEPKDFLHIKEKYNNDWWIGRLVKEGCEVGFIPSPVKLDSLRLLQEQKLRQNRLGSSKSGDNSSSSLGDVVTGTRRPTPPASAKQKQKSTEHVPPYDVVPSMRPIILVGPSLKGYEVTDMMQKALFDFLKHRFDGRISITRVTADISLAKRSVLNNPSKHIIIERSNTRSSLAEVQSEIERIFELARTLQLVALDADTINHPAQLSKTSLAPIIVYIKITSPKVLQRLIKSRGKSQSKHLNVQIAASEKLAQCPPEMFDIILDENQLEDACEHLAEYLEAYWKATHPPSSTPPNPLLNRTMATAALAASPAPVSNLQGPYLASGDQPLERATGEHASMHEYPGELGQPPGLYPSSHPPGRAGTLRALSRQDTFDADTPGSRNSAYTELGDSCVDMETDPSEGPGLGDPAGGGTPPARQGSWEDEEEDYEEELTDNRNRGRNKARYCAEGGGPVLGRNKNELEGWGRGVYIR
Method: Cell maintenance and differentiation. Unless noted otherwise, cell culture reagents were purchased from Mediatech of Herndon, Md. IMR32 cells (American Type Culture Collection, ATCC, Manassas, Va.) were routinely cultured in growth medium consisting of minimum essential medium containing 10% fetal bovine serum (FBS, Hyclone, Logan, Utah), 100 U/mL penicillin, 100 μg/mL streptomycin, 2 mM L-glutamine, 1 mM sodium pyruvate, and 1×MEM non-essential amino acids. 80-90% confluent flasks of cells were differentiated using the following differentiation medium: Growth medium plus 1 mM dibutyryl cyclic AMP (Sigma, St. Louis, Mo.), and 2.5 μM bromodeoxyuridine (Sigma). […]
CellStripper, and seeded on poly-D-lysine-coated 96-well clear-bottom black plates (Becton Dickinson, Franklin Lakes, N.J.) at 200,000 cells/well. […] Plates were then transferred to a Fluorimetric Imaging Plate Reader (FLIPR^96, Molecular Devices, Inc., Sunnyvale, Calif.) for assay. The FLIPR measured basal Fluo-4 fluorescence for 315 seconds (i.e., 5 minutes and 15 seconds), then added 0.1 mL KCl agonist dissolved in IMR32 buffer and measured fluorescence for another 45 seconds. Final test compound concentrations on the cells after FLIPR read ranged from about 846 pM to about 17 μM, final nitrendipine concentration was 5 μM, and final KCl concentration was 90 mM. […]

[2] = target: T1, N-type calcium channel (NTCC); assay: as above; set-up: endogenous in cells; host or cells: IMR32 cells (ATCC), differentiated 8 days with dibutyryl cAMP and bromodeoxyuridine; details: calcium mobilization in vitro assay; N-type calcium channel block
Method: Cell maintenance and differentiation. Unless noted otherwise, cell culture reagents were purchased from Mediatech of Herndon, Md. IMR32 cells (American Type Culture Collection, ATCC, Manassas, Va.) were routinely cultured in growth medium consisting of minimum essential medium containing 10% fetal bovine serum (FBS, Hyclone, Logan, Utah), 100 U/mL penicillin, 100 μg/mL streptomycin, 2 mM L-glutamine, 1 mM sodium pyruvate, and 1×MEM non-essential amino acids. 80-90% confluent flasks of cells were differentiated using the following differentiation medium: Growth medium plus 1 mM dibutyryl cyclic AMP (Sigma, St. Louis, Mo.), and 2.5 μM bromodeoxyuridine (Sigma). Cells were differentiated for 8 days by replacing differentiation medium every 2-3 days.
FLIPR Calcium Mobilization Assay for N-type Calcium Channel. One day prior to performing this assay, differentiated IMR32 cells were treated with 1×
CellStripper, and seeded on poly-D-lysine-coated 96-well clear-bottom black plates (Becton Dickinson, Franklin Lakes, N.J.) at 200,000 cells/well. On the day of the assay, the cell plates were washed with IMR32 buffer (127 mM NaCl, 1 mM KCl, 2 mM MgCl2, 700 μM NaH2PO4, 5 mM CaCl2, 5 mM NaHCO3, 8 mM HEPES, 10 mM glucose, pH 7.4), then pre-stimulated with KCl and loaded as follows: 0.05 mL of IMR32 buffer, 0.05 mL of each compound tested diluted in IMR32 buffer containing 20 μM nitrendipine (Sigma), and 0.1 mL KCl dissolved in IMR32 buffer, plus Fluo-4 were added (3 μM final concentration, Molecular Probes, Eugene, Oreg.). Final test compound concentrations ranged from about 846 pM to about 17 μM, final nitrendipine concentration was 5 μM, and final KCl concentration was 90 mM. After 1 hour, the cells were washed twice with 0.05 mL of each compound tested in nitrendipine-containing IMR32 buffer (no KCl or Fluo-4), and then replaced with 0.1 mL of each compound tested in nitrendipine-containing IMR32 buffer. Plates were then transferred to a Fluorimetric Imaging Plate Reader (FLIPR^96, Molecular Devices, Inc., Sunnyvale, Calif.) for assay. The FLIPR measured basal Fluo-4 fluorescence for 315 seconds (i.e., 5 minutes and 15 seconds), then added 0.1 mL KCl agonist dissolved in IMR32 buffer and measured fluorescence for another 45 seconds. Final test compound concentrations on the cells after FLIPR read ranged from about 846 pM to about 17 μM, final nitrendipine concentration was 5 μM, and final KCl concentration was 90 mM. Data were collected over the entire time course and analyzed using Excel, Graph Pad Prism (version 3.02, Graph Pad, San Diego, Calif.), or an in-house non-linear regression analysis software.

[3] = target: T2, L-type calcium channel (LTCC) (Rattus norvegicus, UniProt P22002); assay: FLIPR calcium mobilization assay for L-type calcium channel (HEK293 cells expressing recombinant rat LTCC subunits, or alternatively differentiated A7r5 cells); details: calcium mobilization in vitro assay; L-type calcium channel block
T2 construct: The 6.5 kb cDNA encoding the L-type calcium channel α1c subunit was cloned by PCR amplification from rat heart cDNA; expressed in transfected cells; host or cells: HEK293 (ATCC), stably transfected
Method: A7r5 (ATCC) cells were maintained and routinely cultured in A7r5 growth medium consisting of Dulbecco's Modified Eagles Medium containing 10% FBS, 100 U/mL penicillin, 100 μg/mL streptomycin, 4 mM L-glutamine, and 0.15% sodium bicarbonate. 80-90% confluent flasks of cells were differentiated using the following differentiation medium: A7r5 Growth Medium plus 1 mM dibutyryl cyclic AMP (Sigma). Cells were differentiated for 8 days by replacing differentiation medium every 2-3 days.
FLIPR Calcium Mobilization Assay for L-type Calcium Channel. One day prior to performing this assay, HEK293 cells stably expressing recombinant rat L-type calcium channel (LTCC) subunits (α1c, α2δ, and β1) are trypsinized, then seeded on poly-D-lysine-coated 96-well clear-bottom black plates (Becton Dickinson, Franklin Lakes, N.J.) at 75,000 cells/well. On the day of the assay, the plates are washed with LTCC wash buffer (127 mM NaCl, 2 mM MgCl2, 700 μM NaH2PO4, 5 mM CaCl2, 5 mM NaHCO3, 8 mM HEPES, 10 mM glucose, pH 7.4), then loaded with 0.1 mL of LTCC wash buffer containing Fluo-4 (3 μM final concentration, Molecular Probes, Eugene, Oreg.). After 1 hour, the cells are washed with 0.1 mL LTCC wash buffer and resuspended in 0.05 mL LTCC assay buffer (same composition as LTCC wash buffer). Plates are then transferred to a FLIPR^96 for assay. The FLIPR measures basal Fluo-4 fluorescence for 15 seconds, then adds 0.05 mL of each compound tested diluted in LTCC assay buffer at final concentrations ranging from about 846 pM to about 17 μM. Fluo-4 fluorescence is then measured for 5 minutes. 0.1 mL KCl agonist dissolved in LTCC assay buffer is then added to the cells to produce a final concentration of 90 mM KCl, and fluorescence is measured for another 45 seconds. Data are collected over the entire time course and analyzed using Excel, Graph Pad Prism, or an in-house regression analysis software.
Alternative FLIPR Calcium Mobilization Assay for L-type Calcium Channel. Alternatively, the following cell line and procedure was used for the FLIPR calcium mobilization assay for L-type calcium channel. One day prior to performing this assay, differentiated A7r5 cells were trypsinized, then seeded on tissue culture treated 96-well clear-bottom black plates (Becton Dickinson, Franklin Lakes, N.J.) at a dilution of 1:1 from a confluent T150 cm^2 flask. On the day of the assay, the plates were washed with A7r5 wash buffer (127 mM NaCl, 2 mM MgCl2, 700 μM NaH2PO4, 5 mM CaCl2, 5 mM NaHCO3, 8 mM HEPES, 10 mM glucose, pH 7.4), then loaded with 0.1 mL of A7r5 wash buffer containing Fluo-4 (3 μM final concentration, Molecular Probes, Eugene, Oreg.). After 1 hour, the cells were washed with 0.1 mL A7r5 wash buffer and resuspended in 0.05 mL A7r5 assay buffer that was composed of A7r5 wash buffer plus 50 μM valinomycin (Sigma). Plates were then transferred to a FLIPR^96 for assay. The FLIPR measured basal Fluo-4 fluorescence for 15 seconds, then added 0.05 mL of each compound tested diluted in A7r5 assay buffer at final concentrations ranging from about 846 pM to about 17 μM. Fluo-4 fluorescence was then measured for 5 minutes. 0.1 mL KCl agonist dissolved in A7r5 assay buffer is then added to the cells to produce a final concentration of 90 mM KCl, and fluorescence was measured for another 45 seconds. Data were collected over the entire time course and analyzed using Excel, Graph Pad Prism, or an in-house regression analysis software.

IC50 [1]	Compound	IC50 [2]	IC50 [3]
10000 to 20000 nM	CC(C)c1ccc(CN2CCC3(C=Cc4cccnc43)CC2)cc1	–	–
–	O=C1OC2(CCN(C(=O)CCC(c3ccc(F)cc3)c3ccc(F)cc3)CC2)c2ccccc21 [Compound 14, 1,3-Dihydro-1′-[4,4-bis(4-fluorophenyl)butanoyl]-spiro[isobenzofuran-1,4′-piperidine]-3-one]	690 nM	310 nM
–	O=C(CCC(c1ccc(F)cc1)c1ccc(F)cc1)N1CCC2(CCc3ccccc32)CC1 [Compound 35, 1-[4,4-bis(4-fluorophenyl)butanoyl]-spiro[piperidine-4,1′-indane]]	4920 nM	> 20000 nM
–	COc1ccc(CN2CCC3(C=Cc4ccccc43)CC2)cc1 [Compound 37, 1-(4-methoxybenzyl)-spiro[piperidine-4,1′-indene]]	820 nM	5440 nM
–	O=C1Nc2ccccc2C12CCN(CCCC(c1ccc(F)cc1)c1ccc(F)cc1)CC2 [Compound 60, 2,3-Dihydro-1′-[4,4-bis(4-fluorophenyl)butyl]-spiro[indole-3,4′-piperidine]-2-one]	1050 nM	3800 nM
–	C1=CC2(CCN(CCC=C3c4ccccc4CCc4ccccc43)CC2)c2cccnc21 [1-[2-(10,11-dihydro-5H-dibenzo[a,d]cyclohepten-5-ylmethenyl)ethyl]-spiro[piperidine-4,5′-cyclopenta[b]pyridine]]	550 nM	3780 nM
–	O=C1NC2(CCN(CCCC(c3ccc(F)cc3)c3ccc(F)cc3)CC2)c2ccccc21 [2,3-Dihydro-1′-[4,4-bis(4-fluorophenyl)butyl]-spiro[isoindole-1,4′-piperidine]-3-one]	340 nM	> 20000 nM
